Source: patent US20060229209A1, “Copolymers based on n-vinylamide as adjuvants and agents for using in the agrotechnical field” (priority 2002, published 2006)

Tested on: Puccinia recondita
Test: Improvement in the fungicidal activity: wheat leaves inoculated with Puccinia recondita, sprayed with fungicide plus test additive, visual assessment of infestation
Assay type: in vivo, Puccinia recondita on wheat variety "Kanzler"
Details: no test additive, 8 days in greenhouse after spraying
Method: Both of the leaves which developed first of wheat seeds of the variety “Kanzler”, which were raised in pots, were dusted with spores of Puccinia recondita. In order to guarantee the success of the artificial inoculation, the plants were kept for 24 hours in a humidity chamber without light at a relative humidity of 95 to 99% and a temperature of 20 to 22° C. The next day, the plants were sprayed with an aqueous suspension comprising fungicide at the concentration given below as a mixture with water and 125 ppm of the test additive. The plants were allowed to dry in the air. The experimental plants were subsequently cultivated in a greenhouse for 8 days at a temperature of 22 to 26° C. and a relative humidity of between 40 and 80%. The extent of the fungal infestation on the leaves was assessed visually and expressed as a percentage of the affected leaf area with respect to the unaffected leaf area.

Structure (SMILES)	% affected leaf area (Epoxiconazole 0.125 ppm a.c.)	% affected leaf area (Epoxiconazole 0.25 ppm a.c.)	% affected leaf area (Pyraclostrobin 1 ppm a.c.)	% affected leaf area (Pyraclostrobin 2 ppm a.c.)
Fc1ccc([C@]2(Cn3cncn3)O[C@H]2c2ccccc2Cl)cc1 (racemic) [Epoxiconazole, epoxiconazole]	53%	47%		
COC(=O)N(OC)c1ccccc1COc1ccn(-c2ccc(Cl)cc2)n1 [Pyraclostrobin, pyraclostrobin]			32%	13%
